From US7776863B2, “Methods of treating HIV infection” (priority 2004, dated 2010)

Tested on: HIV-1 LAI
Assay: microbe, parasite or virus in culture
Settings: for Combination Indices at % HIV Inhibition (Confidence Interval) 50% / Combination Indices at % HIV Inhibition (Confidence Interval) 75% / Combination Indices at % HIV Inhibition (Confidence Interval) 90% / Overall Result (combined anti-HIV effect): Compound 1 + named drug; for Combination Indices at % HIV Inhibition (Confidence Interval) 50% / Combination Indices at % HIV Inhibition (Confidence Interval) 75% / Combination Indices at % HIV Inhibition (Confidence Interval) 90%: 95% confidence interval in parentheses; for Overall Result (combined anti-HIV effect): all ratios, MT-2 cells, HIV-1 LAI
Experimental: Virus and cell lines. The T-cell lines, MT-2 and PM-1 were obtained through the AIDS Research and Reference Reagent Program, NIAID, and were contributed by Dr. D. Richman and Dr. R. Gallo, respectively. Both cell lines were cultured in RPMI 1640 medium supplemented with 10% fetal bovine serum, 2 mM L-glutamine and sub-cultured twice a week. The LAI strain of HIV-1 was obtained from the Fred Hutchinson Cancer Research Center, and the Bal strain was from NIH. Both virus stocks were amplified and titered in MT-2 cells (LAI) and PM-1 cells (Bal) using a virus infectivity assay.
Drug Susceptibility and Cytotoxicity Assays. For drug susceptibility assays, MT-2 cells were infected with HIV-1 LAI (or PM-1 cells with HIV-1 Bal) at an MOI of 0.005, and seeded into 96-well microtiter plates (0.1×10^6 cells/ml) containing serial dilutions of test compounds. […] Each drug ratio consisted of an array of 3-fold serial dilutions, and was performed in quadruplicate. The plates were incubated at 37° C./5% CO2. The MT-2 cells infected with HIV-1 LAI were incubated for 5 days. On day-five post-infection, 20 μl from each well was harvested and quantitated by a reverse transcriptase (RT) assay, or in samples involving non-nucleoside RT inhibitors, an MTS assay. The PM-1 cells infected with HIV-1 Bal and used for studying the combinations with CCR5 inhibitors were incubated for six days. On day-six post-infection, 20 μl from each well was harvested, 20- and 50-fold diluted and quantitated by p24 assay. Cytotoxicity assays were performed using uninfected cells, exposed to the same drug combinations, and incubated for six days. Cell viability was determined by an MTS assay. The CC50 values were calculated by using the exponential form of the median effect equation as mentioned below for calculation of EC50.
Analysis of Drug Combination Effects. For determination of CI values, drugs were diluted in a fixed ratio and multiple ratios were analyzed. The drug serial dilutions spanned a range of concentrations near the EC50 value of each compound, so that equivalent antiviral activities could be compared. Concentration-response curves were estimated for each individual drug and every combination using the median-effect equation. The equation was fit using a nonlinear regression routine (Proc Nlin) in PC SAS version 8.01 (SAS Institute Inc., SAS Version 8.01, Cary, N.C.: SAS Institute Inc., 1990).
In this equation, Fa stands for “fraction affected,” and represents the fraction of the viral load that has been inactivated. […] ED50 is drug concentration that is expected to reduce the amount of virus by 50%, and m is a parameter that reflects the slope of the concentration-response curve.
To assess antiviral effects of different drug combination treatments, combination indices (CIs) were calculated according to Chou and Rideout. The combination index was computed as CI=[D]1/[Dm]1+[D]2/[Dm]2
In this equation [Dm]1 and [Dm]2 are the concentrations of drugs that would individually produce a specific level of effect, while [D]1 and [D]2 are the concentrations of drugs in combination that would produce the same level of effect.
Theoretically, additivity is implied if the CI is equal to one, synergy if the CI is less than one, and antagonism if the CI is greater than one. […] At best, we can construct a range that contains the likely values for the CI, given the noise in the data. In this report, these ranges are reported in parentheses next to each point estimate of the CI. […] If the range fell entirely above 1.0, we would infer antagonistic behavior. If the range were to include 1.0, we would infer additivity.
In carrying out the combination experiments below, the EC50 for Compound 1 and each comparator compound was determined during the course of each study, and used in the subsequent data analysis.

[1] = EC50 ratio 1:1 (Compound 1:comparator)
[2] = EC50 ratio 1:2.5 (Compound 1:comparator)
[3] = EC50 ratio 2.5:1 (Compound 1:comparator)
[4] = Human immunodeficiency virus 1, MT2, 120 h

| Molecule | Combination Indices at % HIV Inhibition (Confidence Interval) 50% [1] | Combination Indices at % HIV Inhibition (Confidence Interval) 75% [1] | Combination Indices at % HIV Inhibition (Confidence Interval) 90% [1] | Combination Indices at % HIV Inhibition (Confidence Interval) 50% [2] | Combination Indices at % HIV Inhibition (Confidence Interval) 75% [2] | Combination Indices at % HIV Inhibition (Confidence Interval) 90% [2] | Combination Indices at % HIV Inhibition (Confidence Interval) 50% [3] | Combination Indices at % HIV Inhibition (Confidence Interval) 75% [3] | Combination Indices at % HIV Inhibition (Confidence Interval) 90% [3] | Overall Result (combined anti-HIV effect) | Overall Result (combined anti-HIV effect) (listed as delavirdine) | EC50 [4] [nM] | Overall Result (combined anti-HIV effect) (listed as efavirenz) | EC50 (LAI) [nM] | Overall Result (combined anti-HIV effect) (listed as nevapiradine) |
| --- | --- | --- | --- | --- | --- | --- | --- | --- | --- | --- | --- | --- | --- | --- | --- |
| CC(C)Nc1cccnc1N1CCN(C(=O)c2cc3cc(NS(C)(=O)=O)ccc3[nH]2)CC1 [Delavirdine, delavirdine] | 0.90 (0.75, 1.06) | 0.49 (0.38, 0.61) | 0.28 (0.18, 0.39) | 0.57 (0.42, 0.71) | 0.55 (0.36, 0.75) | 0.57 (0.26, 0.89) | 0.64 (0.49, 0.78) | 0.46 (0.31, 0.60) | 0.34 (0.17, 0.50) | Synergistic | synergistic | 25 |  |  |  |
| O=C1Nc2ccc(Cl)cc2[C@@](C#CC2CC2)(C(F)(F)F)O1 [Efavirenz, efavirenz] | 0.70 (0.50, 0.89) |  | 0.32 (0.13, 0.50) | 0.47 (0.28, 0.65) | 0.46 (0.21, 0.70) | 0.45 (0.06, 0.83) | 0.52 (0.36, 0.69) | 0.39 (0.21, 0.57) | 0.30 (0.08, 0.51) | Synergistic |  | 1 | synergistic |  |  |
| CC(C)c1nc(CN(C)C(=O)N[C@H](C(=O)N[C@@H](Cc2ccccc2)C[C@H](O)[C@H](Cc2ccccc2)NC(=O)OCc2cncs2)C(C)C)cs1 [Ritonavir, ritonavir] | 0.60 (0.49, 0.72) | 0.61 (0.45, 0.77) | 0.70 (0.41, 0.99) | 0.54 (0.45, 0.63) | 0.58 (0.44, 0.71) | 0.73 (0.46, 1.00) | 0.23 (0.20, 0.26) | 0.20 (0.17, 0.24) | 0.19 (0.14, 0.24) | Synergistic |  | 7 |  |  |  |
| Nc1ccn([C@@H]2CS[C@H](CO)O2)c(=O)n1 [Lamivudine, lamivudine] | 0.75 (0.45, 1.05) | 0.79 (0.35, 1.23) | 0.90 (0.11, 1.69) | 0.13 (0.10, 0.16) | 0.21 (0.16, 0.27) | 0.39 (0.21, 0.58) | 0.14 (0.10, 0.17) | 0.26 (0.18, 0.33) | 0.49 (0.22, 0.75) |  |  |  |  |  |  |
| enfuvirtide | 0.47 (0.40, 0.54) | 0.53 (0.42, 0.65) | 0.60 (0.39, 0.81) | 0.48 (0.37, 0.60) | 0.60 (0.40, 0.80) | 0.75 (0.35, 1.15) | 0.35 (0.29, 0.40) | 0.47 (0.37, 0.57) | 0.63 (0.40, 0.86) | Synergistic |  |  |  | 1 |  |
| O=c1[nH]cnc2c1ncn2[C@H]1CC[C@@H](CO)O1 [Didanosine, didanosine] | 0.31 (0.29, 0.32) | 0.16 (0.15, 0.17) | 0.08 (0.08, 0.09) | 0.27 (0.23, 0.31) | 0.31 (0.24, 0.38) | 0.35 (0.23, 0.48) | 0.15 (0.11, 0.19) | 0.31 (0.22, 0.40) | 0.65 (0.31, 0.98) | Synergistic |  | 652 |  |  |  |
| CC(C)(C)NC(=O)[C@@H]1C[C@@H]2CCCC[C@@H]2CN1C[C@@H](O)[C@H](Cc1ccccc1)NC(=O)[C@H](CC(N)=O)NC(=O)c1ccc2ccccc2n1 [Saquinavir, saquinavir] | 0.31 (0.28, 0.33) | 0.31 (0.28, 0.35) | 0.32 (0.26, 0.38) | 0.60 (0.52, 0.67) | 0.67 (0.56, 0.79) | 0.77 (0.56, 0.97) | 0.39 (0.33, 0.45) | 0.59 (0.46, 0.72) | 0.90 (0.58, 1.22) | Synergistic |  | 5 |  |  |  |
| Cc1ccnc2c1NC(=O)c1cccnc1N2C1CC1 [Nevirapine, nevirapine] | 0.19 (0.15, 0.23) | 0.22 (0.16, 6.28) | 0.26 (0.15, 0.38) | 0.48 (0.35, 0.62) | 0.66 (0.40, 0.92) | 0.92 (0.35, 1.49) | 0.58 (0.48, 0.67) | 0.99 (0.76, 1.22) | 1.71 (1.09, 2.33) | Additive- |  | 107 |  |  | additive-synergystic |
